This is an account of results in US20110046142A1, “ANTIBIOTIC COMPOUNDS” (priority 2007, published 2011).

Common to all, as to type: cell-based
One test relates to E. coli K12 wt. As to the kind of experiment: MIC, standard broth microdilution assay. The conditions noted are these: LB broth, 10^5 cells per well, 1 mM IPTG. On the procedure: (§1) The ASKA strains of interest are validated for functional expression of the enzyme. If the protein is not expressed from a given expression vector the ORF is recloned. A strain overexpressing the activating enzyme from the ASKA library is then tested with the hit compound. If the hit has greater activity against this overexpressing strain as compared to the wild type, this indicates a prodrug. The test is performed in a standard broth microdilution assay for MIC determination. Hits with the lowest wild type MIC are then examined.
(§2) Cells were tested in a standard broth microdilution assay, inoculating 10^5 cells per well of a microtiter plate in LB broth. Overexpression and deletion strains were compared to the appropriate isogenic wild type. IPTG was added at 1 mM to growth medium. Experiments involving nfnB and nfsA strains were performed under anaerobic conditions.

In test [1] the test system is E. coli K12 overexpressing activating enzyme. In words: MIC, standard broth microdilution assay, overexpression strains. The method, then: as §1, §2
In general terms: Broth dilution looks for growth in wells or tubes with falling amounts of substance.

The test system of test [2] is E. coli K12 Δactivating enzyme. In words: MIC, standard broth microdilution assay, deletion strains. On the procedure:
as §1, §2

The test system of test [3] is E. coli K12 ΔtolC overexpressing activating enzyme. As to the kind of experiment: MIC, standard broth microdilution assay, tolC deletion (MDR efflux).
Description: Prodrugs are activated by activating enzymes into reactive molecules that bind to their targets, creating an irreversible sink. This may lead to insensitivity of the overall process to MDR efflux. In order to test this possibility, an E. coli K12 with a deletion in tolC coding for the outer membrane porin that is a component of the transenvelope MDRs was utilized (Li (2004) Drugs 64:159-204). This strain is highly sensitive to antibiotics (Tegos et al. (2002) Antimicrob. Agents Chemother. 46:3133-3141). […] The substrate specificity of AcrAB is remarkably broad, and includes essentially all small molecular weight amphipathic compounds. The AcrAB substrates include anions (SDS, fatty acids, bile acids), neutral compounds (macrolides, chloramphenicol, tetracyclines) and cations or compounds that can form cations (acridine, quaternary compound antiseptics, fluoroquinolones). AcrAB can extrude a natural broad spectrum antibiotics that evolved for good penetration, chloramphenicol and tetracycline; and also extrude synthetic broad-spectrums, the fluoroquinolones.
as §2

For test [4], the system named is E. coli K12 knockout pool (BacPool) and wild type. As to the kind of experiment: Prodrug screen, growth/no growth of BacPool knockout mix versus wild type. The conditions noted are these: compounds at about 46-50 μg/ml, OD600 after overnight incubation. The source says: A complete, ordered E. coli K12 knockout library of 4320 genes and predicted ORFs (the Keio library) was used (Baba et al. (2006). Mol. Systems Biol. 2:2006.0008). The knockouts were constructed using the Wanner method with a kanamycin cassette replacing the ORFs (Datsenko et al. (2000) Proc. Natl. Acad. Sci. USA 97:6640-6645). All strains of this library were combined in a mix BacPool1) for screening. This permitted screening of the library against all strains simultaneously, instead of screening a full industry-size library against each of the individual E. coli 4×10^3 knockout strains.
The library mix was prepared by first culturing all strains overnight in LB medium, and then adding equal aliquots into a tube. This material was then mixed, dispensed in vials and stored at −80° C. For the screen, one vial was thawed, diluted to 10^5 cells/ml in LB, and dispensed into 384 well microtiter plates. The compounds were added from DMSO stocks at a final concentration of 46 μg/ml. The same compounds were added to plates containing the wild type isogenic control. Screening was performed at the Harvard NSRB/NERCE screening facility that host a collection of 150,000 compounds (see Tables 1A and 1B). All screens at NSRB/NERCE were performed in duplicate, which strongly decreases the rate of false positives and negatives. For each tested molecule there are three possible scenarios when scoring for growth/no growth:
Growth in both the BacPool and K12 wells: indicates lack of antimicrobial activity;
Growth inhibition in both the BacPool and K12 wells: a possible antibiotic (direct activity) or generally toxic compound is present, but is not a prodrug; or
Growth of a BacPool well and no growth of the K12 well: a prodrug hit.
After an overnight incubation of plates at 37° C., the plates were read at OD600. Compounds that had no effect on the growth of the mix and inhibited the growth of the wild type were recorded as hits. The wells with growth indicated a prodrug hit that is not converted into a drug by a particular deletion mutant in the mix. The mutant strain is then identified in a secondary screen (see Example 2).
Yet another screen was performed on 147,500 compounds, using the protocol described below. […]
An E. coli KanR culture was grown in LB broth containing 50 μg/ml Kanamycin for 20 hrs at 37° C. in a shaking incubator. […] The plates were then incubated for 20 hrs at 37° C., and then the plates were read for Optical Density at 600 nm and were scored for growth/no growth. […]
Hits were identified by calculating the % of inhibition of growth of E. coli measured by OD600. The data were analyzed as follows: negative controls (N), positive controls (P), and compounds (X) ODs were separately averaged and the resulting means were used to calculate % of inhibition of E. coli growth: […]

The next test relates to wild type (WT) E. coli. In words: MIC, validation of screen hits. The conditions noted are these: Escherichia coli, read-out: MIC. The method, then:
To validate the screening, the activity of nitazole against strains with nitrate reductases deleted and in strains overexpressing nitrate reductases were tested. A prodrug activated by a nitrate reductase has lower activity against a strain lacking the enzyme, and a higher activity in an overexpression strain, as compared to a wild type. E. coli has two known […], NfnB and NfsA. Strains tested were wild type (WT) E. coli, two knockout strains lacking the 2 nitroreductases (NfnB−; NfsA−), and against two strains overexpressing the same enzymes (NfnB+ and NfsA+). MIC values for nitazole are shown below.

A further test deals with P. aeruginosa. In words: Killing of logarithmic, stationary and biofilm cultures, colony count. The method, then:
Persister cells in planktonic and biofilm populations are characterized for their antibiotic sensitivity in this example. Several bactericidal antimicrobials were chosen to test the resistance of P. aeruginosa to killing—ofloxacin, a fluoroquinolone; tobramycin, an aminoglycoside; carbenicillin, a β-lactam; and peracetic acid, a disinfectant oxidant (Spoering et al. (2001) J. Bacteriol. 183:6746-6751). Biofilms were grown essentially by the method of Ceri (Ceri et al. (1999) J. Clin. Microbiol. 37:1771-1776) and as described in Brooun et al. (2000) Antimicrob. Agents Chemother. 44:640-646. The device used for biofilm formation is a platform carrying 96 polystyrene pegs that fit in a microtiter plate. Preformed biofilms were incubated in the presence of an antimicrobial agent, and survival was measured after disrupting the biofilms by colony count.
Logarithmic state, stationary and biofilm cultures were challenged with carbenicillin. Carbenicillin is a bactericidal antibiotic that, similarly to most β-lactams, only kills rapidly growing cells (Tuomanen et al. (1986) Scand. J. Gastroenterol. Suppl:10-14). […] The amount of killing of logarithmic cells approached a plateau at concentrations above 1.67×MIC, indicating the presence of a persister subpopulation. These 0.1% cells in the rapidly growing logarithmic culture were invulnerable to killing by carbenicillin at 600 μg/ml.
Unlike carbenicillin, ofloxacin can kill non-growing cells (Brooun et al. (2000) Antimicrob. Agents Chemother. 44:640-646). Logarithmic, stationary and biofilm cultures were challenged with ofloxacin over a wide range of concentrations, from 1×MIC (0.5 μg/ml) to 30×MIC (15 μg/ml). After a 6 hrs incubation time with the antibiotic, viability was determined by colony count. The majority of cells in the three populations examined were killed at low concentrations of ofloxacin (FIG. 3B). The killing in all three cultures was distinctly biphasic, indicating the presence of persister cells. The levels of persisters were dramatically higher in the dense stationary planktonic and biofilm cultures as compared to logarithmic cells. […] At 5 μg/ml ofloxacin, which is the clinically achievable concentration (Schulz et al. (1997) Pharmazie 52:895-911), the percentage of live cells was 0.001% in the logarithmic population, 0.1% in the biofilm and 2.5% in the stationary culture (FIG. 3B).
Tobramycin at 50 μg/ml (the maximal clinically achievable concentration is 10 μg/ml), (Schulz et al. (1997) Pharmazie 52:895-911) eliminated 90% of the biofilm cells, and the remaining population declined gradually with increasing amounts of the antibiotic. At high concentrations surviving persisters became apparent. Tobramycin was ineffective against stationary planktonic cells, apparently due to the dependence of killing of growth.
Peracetic acid, an oxidizing disinfectant, was used in order to test the ability of a sterilizing agent to act against persisters. […] Similar results showing biphasic killing, and high level of persisters in stationary and biofilm populations, also were obtained with S. aureus and E. coli (Keren et al. (2004) FEMS Microbiol. Lett. 230:13-18).

The mark [5] stands for this setting: Escherichia coli, K12WT, read-out: MIC.
Setting [6] is: nfsA^+ overexpressing strain, 1 mM IPTG, anaerobic conditions.
Setting [7] is: ΔtolC, nfnB^+ overexpressing strain.
Setting [8] is: ΔtolC, nfsA^+ overexpressing strain.
Setting [9] is: nfnB^+ overexpressing strain, 1 mM IPTG, anaerobic conditions.
The mark [10] stands for this setting: nfnB^− deletion strain, anaerobic conditions.
[11] abbreviates: nfsA^− deletion strain, anaerobic conditions.

Converted amounts (≈) assume the structure as drawn. Read-outs that look alike come from different tables or passages of the source.

With `Nc1nc(O)ncc1F` [5-fluorocytosine, 5-Fluorocytosine], the MIC is > 2500 mg/L in the test with E. coli K12 wt (setting [5]); 625 mg/L (≈ 4840 µM) in test [1] (Escherichia coli); > 2500 mg/L in test [2] (Escherichia coli, codA^− deletion strain); 625 mg/L (≈ 4840 µM) in test [3] (Escherichia coli).
For the compound `Nc1nc(F)nc2c1ncn2[C@@H]1O[C@H](CO)[C@@H](O)[C@@H]1O` [Fludarabine], the MIC in the test on E. coli K12 wt (setting [5]) was > 500 mg/L; in test [1] (Escherichia coli), 125 mg/L (≈ 438 µM); in test [2] (Escherichia coli, deoD^− deletion strain), > 500 mg/L; in test [3] (Escherichia coli), 125 mg/L (≈ 438 µM).
In the case of `S=C(Nc1cccc(Cl)c1)Nc1cccc(Cl)c1` [PD18, thiourea, N,N′-bis(3-chlorophenyl)-(9CI)], the “screen outcome (prodrug hit / direct activity)” value in test [4] is recorded as “prodrug hits”. Moreover, the MIC in the test on wild type (WT) E. coli came to 25 mg/L (≈ 84.1 µM).
Regarding `CC[C@H]1OC(=O)[C@H](C)[C@@H](O[C@H]2C[C@@](C)(OC)[C@@H](O)[C@H](C)O2)[C@H](C)[C@@H](O[C@@H]2O[C@H](C)C[C@H](N(C)C)[C@H]2O)[C@](C)(O)C[C@@H](C)C(=O)[C@H](C)[C@@H](O)[C@]1(C)O` [Erythromycin], the minimum inhibitory concentration (MIC) in the test on E. coli K12 wt (setting [5]) was 200 mg/L (≈ 273 µM); in test [1] (Escherichia coli) it was 200 mg/L (≈ 273 µM); in test [1] (codA^+ overexpressing strain, 1 mM IPTG), “codA^+ 200 μg/ml”; in test [1] (deoD^+ overexpressing strain, 1 mM IPTG), “deoD^+ 200 μg/ml”; in test [1] (setting [6]), “nfsA^+ 200 μg/ml”; in test [3] (Escherichia coli), 1.56 mg/L (≈ 2.13 µM). Further, the MIC entry is given as “codA^+ 1.56 μg/ml” in test [3] (ΔtolC, codA^+ overexpressing strain); “deoD^+ 1.56 μg/ml” in test [3] (ΔtolC, deoD^+ overexpressing strain); “nfnB^+ 1.56 μg/ml” in test [3] (setting [7]); “nfsA^+ 1.56 μg/ml” in test [3] (setting [8]).
`CC1(C)S[C@@H]2[C@H](NC(=O)C(C(=O)O)c3ccccc3)C(=O)N2[C@H]1C(=O)O` (stereo partly drawn) [carbenicillin]: in the test on P. aeruginosa (biofilm), the “killing of biofilm cells” value is “resistant to killing”. In the test with P. aeruginosa (logarithmic cells), the “concentration at which the majority of logarithmic cells were killed” value came to 1.67 ×MIC. The “cells invulnerable to killing (persister subpopulation)” value in the test with P. aeruginosa (rapidly growing logarithmic culture, 600 μg/ml) turned out to be 0.1%. Also, the “killing of stationary cells” value with P. aeruginosa (stationary planktonic cells) is “little killing”.
For the compound `CC(=O)OO` [Peracetic acid], in the test on P. aeruginosa (logarithmic, stationary and biofilm cultures), the sterilization of cultures result was “all cultures were sterilized”.
As for `NC(=O)c1cc(N2CC2)c([N+](=O)[O-])cc1[N+](=O)[O-]` [Dinitroaziridinylbenzamide (CB1954), Dinitroaziridinylbenzamide], the MIC against E. coli K12 wt is >200 mg/L; in test [1] (setting [9]) it was “nfnB^+ 3.3 μg/ml”; in test [1] (setting [6]), “nfsA^+ 6.3 μg/ml”; in test [2] (setting [10]), “nfnB^− > 200 μg/ml”; in test [2] (setting [11]) it was “nfsA^− > 200 μg/ml”; in test [3] (setting [7]), “nfnB^+ 3.3 μg/ml”. Besides, the minimal inhibitory concentration (MIC) entry in test [3] (setting [8]) was “nfsA^+ 6.3 μg/ml”.
Turning to `NC(=O)c1cc([N+](=O)[O-])cc([N+](=O)[O-])c1` [3,5-Dinitrobenzamide], the MIC against E. coli K12 wt is 250 mg/L (≈ 1180 µM); in test [1] (setting [9]) it was “nfnB^+ 15.6 μg/ml”; in test [1] (setting [6]), “nfsA^+ 7.8 μg/ml”; in test [2] (setting [10]), “nfnB^− > 500 μg/ml”; in test [2] (setting [11]), “nfsA^− > 500 μg/ml”; in test [3] (setting [7]), “nfnB^+ 15.6 μg/ml”. The MIC result in test [3] (setting [8]) was “nfsA^+ 7.8 μg/ml”.

For orientation: MIC means the lowest concentration found to suppress growth.
